The text below walks through data of patent US7265130B2, “NPY Y5 antagonist” (Shionogi & Co., Ltd., priority 1999, dated 2007).

The structures appear in SMILES notation.

Assay [1] has as its target T1, human NPY Y5 receptor (Homo sapiens, UniProt Q15761).
T1 construct: expressed in transfected cells
T1 sequence (Q15761 1-445): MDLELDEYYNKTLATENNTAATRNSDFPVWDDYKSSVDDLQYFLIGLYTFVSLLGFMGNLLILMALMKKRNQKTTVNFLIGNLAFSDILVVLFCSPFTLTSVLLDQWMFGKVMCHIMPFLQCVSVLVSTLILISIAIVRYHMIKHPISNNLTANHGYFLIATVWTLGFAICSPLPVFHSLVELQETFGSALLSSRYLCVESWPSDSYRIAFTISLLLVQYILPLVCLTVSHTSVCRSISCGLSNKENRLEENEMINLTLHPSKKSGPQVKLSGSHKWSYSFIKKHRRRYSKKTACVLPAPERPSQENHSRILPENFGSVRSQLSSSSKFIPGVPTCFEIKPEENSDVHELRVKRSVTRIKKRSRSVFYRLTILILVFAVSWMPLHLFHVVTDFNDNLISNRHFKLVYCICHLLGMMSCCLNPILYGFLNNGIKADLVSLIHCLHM
As to the kind of experiment: Affinity for NPY Y5 receptor ([125I] peptide YY binding, CHO cell membranes). The note with it: inhibition of specific [125I] peptide YY binding, membranes of CHO cells expressing NPY Y5 receptor. In short, it runs like this:
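Membranes from CHO cells stably expressing human NPY Y5 receptor incubated with test compound and [125I] peptide YY (60 pM final) in HEPES-Hanks buffer with 0.1% BSA, pH 7.4, 25° C for 2 hours. Filter-bound radioactivity counted; non-specific binding with 200 nM peptide YY; IC50 against specific binding calculated.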

The target of assay [2] is T1, human NPY Y5 receptor. As to the kind of experiment: cAMP production inhibitory activity in CHO cells. To be noted: against 50 nM NPY inhibition of forskolin stimulated cAMP, CHO cells expressing human NPY Y5 receptor. The class given is cell-based. The method, boiled down:
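CHO cells expressing human NPY Y5 receptor preincubated 20 min at 37 °C with 2.5 mM IBMX, then with compound for 5 min. Stimulated with 50 nM NPY plus 10 μM forskolin for 30 min. Reaction stopped with 1N HCl; supernatant cAMP measured by EIA.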
A general note: Changes in cAMP serve as a functional read-out for many G protein-coupled receptors.

A word on the IC50: it is the point on the concentration scale where inhibition reaches its midpoint. A high value points to weaker potency. With `CC(C)(C)S(=O)(=O)NC1CCC(C(=O)Nc2ccc(N(CCO)CCO)cc2)CC1` (stereo not drawn) [Compound I-86], the results for the concentration for half-maximal inhibition (IC50) in assay [1] and in assay [2] were 3.4 nM and 100 nM, respectively.
On to `Cc1cc(C(=O)NC(C)C)ccc1NC(=O)C1CCC(NS(=O)(=O)C(C)(C)C)CC1` (stereo not drawn) [Ia-201], for which the IC50 in assay [1] came out at 3.1 nM; in assay [2], 74 nM.
With `CC(C)S(=O)(=O)NC1CCC(C(=O)Nc2ccc3c(c2)C(=O)N(C)C3=O)CC1` (stereo not drawn) [Ia-87], the IC50 in assay [1] is 0.49 nM; in assay [2] it was 61 nM.
On to `C[C@@H]1C[C@@H](C)CN(c2ccc(NC(=O)C3CCC(NS(=O)(=O)C(C)(C)C)CC3)cc2)C1` (stereo partly drawn) [Ia-38], for which the figures for the IC50 in assay [1] and in assay [2] were 1 nM and 2.2 nM, respectively.
Regarding `CC(=O)Nc1cccc(NC(=O)C2CCC(NS(=O)(=O)C(C)(C)C)CC2)c1` (stereo not drawn) [Compound I-67], the results for the half-maximal inhibitory concentration (IC50) in assay [1] and in assay [2] were 2 nM and 17 nM, respectively.
In the case of `CC(C)(C)S(=O)(=O)NC1CCC(C(=O)Nc2ccc(N3CCC(O)(c4ccc(Cl)cc4)CC3)cc2)CC1` (stereo not drawn) [Ia-65], the IC50 in assay [1] stood at 1.1 nM; in assay [2], 11 nM.
As to `CCCCc1ccc(NC(=O)c2ccc(N[S+]([O-])C(C)(C)Cl)cc2)cc1` (stereo not drawn) [Compound I-92], the IC50 in assay [1] amounted to 7 nM; in assay [2], 61 nM.
In the case of `CCCCOc1ccc(NC(=O)C2CCC(NS(=O)(=O)C(C)(C)C)CC2)cc1O` (stereo not drawn) [Compound I-166], the IC50 in assay [1] amounted to 0.37 nM; in assay [2], 9.7 nM.
In the case of `CC(C)(C)S(=O)(=O)Nc1ccc(C(=O)Nc2ccc3sccc3c2)cc1` [Ia-133], the half-maximal inhibitory concentration (IC50) in assay [1] was found to be 1.7 nM; in assay [2], 8.8 nM.
On the same counts, the results for `CC(C)(C)S(=O)(=O)NC1CCC(C(=O)Nc2cccc(S(=O)(=O)NC3CCCCC3)c2)CC1` (stereo not drawn) [Ia-168] are 0.95 nM and 13 nM.
For the molecule `CC(C)(C)S(=O)(=O)Nc1ccc(C(=O)Nc2ccc3ccsc3c2)cc1` [Ia-131], the IC50 in assay [1] worked out at 1.3 nM; in assay [2] it was 17 nM.
`CC(C)(C)S(=O)(=O)Nc1ccc(C(=O)Nc2ccc(-c3ccccc3)cc2)cc1` [Ia-158]: the figures for the IC50 in assay [1] and in assay [2] were 0.71 nM and 1.7 nM, respectively.
With `CC(C)(C)S(=O)(=O)NC1CCN(C(=O)Nc2cnc(-c3ccccc3)cn2)CC1` [Ia-70], the IC50 in assay [1] was 1.5 nM; in assay [2] it was 31 nM.
As for `CC(C)(C)S(=O)(=O)NC1CCC(C(=O)NCCSCc2c(Cl)cccc2Cl)CC1` (stereo not drawn) [Compound I-150], the results for the half-inhibitory concentration (IC50) in assay [1] and in assay [2] were 0.17 nM and 5.2 nM, respectively.
With `CCOc1ccc(NC(=O)C2CCC(NS(=O)(=O)C(C)(C)C)CC2)cc1OCC` (stereo not drawn) [Compound I-196], the IC50 worked out at 1.4 nM in assay [1] and 6.8 nM in assay [2].
Take `CCCCOc1cccc(CNC(=O)C2CCC(NS(=O)(=O)C(C)(C)C)CC2)c1` (stereo not drawn) [Compound I-187]: the half-maximal inhibitory concentration (IC50) came out at 0.58 nM in assay [1] and 13 nM in assay [2].
As to `CCCCc1ccc(NC(=O)C2CCC(NS(=O)(=O)C(C)(C)C)CC2)cc1` (stereo not drawn) [Compound I-18], the IC50 in assay [1] is 4.4 nM; in assay [2], 29 nM.
Consider `CC(C)(C)S(=O)(=O)NC1CCC(C(=O)Nc2ccc(-c3ccccc3)cc2)CC1` (stereo not drawn) [Ia-107], for which the figures for the IC50 in assay [1] and in assay [2] were 0.14 nM and 1.3 nM, respectively.
In the case of `CC(C)(C)S(=O)(=O)NC1CCC(C(=O)Nc2ccc3sccc3c2)CC1` (stereo not drawn) [Compound I-210], the concentration for half-maximal inhibition (IC50) in assay [1] came out at 1.1 nM; in assay [2], 13 nM.
On to `COc1cc2c(cc1NC(=O)C1CCC(NS(=O)(=O)C(C)(C)C)CC1)oc1ccccc12` (stereo not drawn) [Compound I-132], for which the values for the IC50 in assay [1] and in assay [2] were 2.2 nM and 30.4 nM, respectively.
With `CC(C)(C)S(=O)(=O)NC1CCC(C(=O)Nc2ccc(-n3ccc4ccccc43)cc2)CC1` (stereo not drawn) [Compound I-76], the IC50 came to 0.61 nM in assay [1] and 5.5 nM in assay [2].
`CC(C)(C)S(=O)(=O)NC1CCC(C(=O)Nc2ccc(OC3CCCCC3)cc2)CC1` (stereo not drawn) [Ia-175]: the half-inhibitory concentration (IC50) in assay [1] was determined as 0.49 nM; in assay [2], 9.2 nM.
As to `CC(C)(C)S(=O)(=O)NC1CCC(C(=O)Nc2ccc(N3CCN(c4ncccn4)CC3)cc2)CC1` (stereo not drawn) [Compound I-55], the IC50 in assay [1] was found to be 9 nM; in assay [2], 40 nM.
For the molecule `CC(C)(C)S(=O)(=O)NC1CCC(C(=O)Nc2ccc(-c3ccc(C#N)cc3)cc2)CC1` (stereo not drawn) [Compound I-137], the half-maximal inhibitory concentration (IC50) came to 1.4 nM in assay [1] and 68.2 nM in assay [2].
As to `CC(C)S(=O)(=O)NC1CCC(C(=O)Nc2ccc(-c3ccco3)cc2)CC1` (stereo not drawn) [Ia-194], the concentration for half-maximal inhibition (IC50) in assay [1] is 0.22 nM; in assay [2] it was 8.1 nM.
On to `CC(C)(C)S(=O)(=O)NC1CCC(C(=O)Nc2ccc3c(c2)C(=O)c2ccccc2-3)CC1` (stereo not drawn) [Compound I-135], for which the IC50 in assay [1] amounted to 0.7 nM; in assay [2], 22 nM.
Consider `CC(C)(C)S(=O)(=O)NC1CCC(C(=O)Nc2cccc3c2CCCC3)CC1` (stereo not drawn) [Ia-111], for which the IC50 in assay [1] was found to be 5.1 nM; in assay [2], 28 nM.
Regarding `CC(C)(C)S(=O)(=O)NC1CCC(C(=O)Nc2ccc(N3CCc4ccccc4C3)cc2)CC1` (stereo not drawn) [Compound I-60], the half-maximal inhibitory concentration (IC50) in assay [1] stood at 0.69 nM; in assay [2], 18 nM.
As to `CC(C)(C)S(=O)(=O)NC1CCC(C(=O)Nc2ccc(NS(C)(=O)=O)cc2)CC1` (stereo not drawn) [Ia-63], the IC50 is 3.9 nM in assay [1] and 370 nM in assay [2].
In the case of `CC(C)(C)S(=O)(=O)NC1CCN(C(=O)Nc2ccc(C3CCCCC3)cc2)CC1` [Ia-221], the concentration for half-maximal inhibition (IC50) was 0.47 nM in assay [1] and 1.5 nM in assay [2].
As to `CC(C)NC(=O)c1ccc(NC(=O)C2CCC(NS(=O)(=O)C(C)C)CC2)cc1` (stereo not drawn) [Ia-193], the IC50 was 1.4 nM in assay [1] and 43 nM in assay [2].
As to `Cn1cc(Br)c(-c2cccc(NC(=O)C3CCC(NS(=O)(=O)C(C)(C)C)CC3)c2)n1` (stereo not drawn) [Compound I-131], the concentration for half-maximal inhibition (IC50) in assay [1] was determined as 1.1 nM; in assay [2] it was 34.8 nM.
With `CC(C)S(=O)(=O)NC1CCC(C(=O)Nc2ccc(OCC3CC3)cc2)CC1` (stereo not drawn) [Ia-196], the IC50 in assay [1] was found to be 0.39 nM; in assay [2], 1.3 nM.
Turning to `CC(C)(C)S(=O)(=O)NC1CCC(C(=O)Nc2ccc(-c3csnn3)cc2)CC1` (stereo not drawn) [Compound I-79], the half-maximal inhibitory concentration (IC50) was determined as 0.59 nM in assay [1] and 25 nM in assay [2].
For `CCCCc1ccc(C(=O)Nc2ccc(NS(=O)(=O)C(C)C)cc2)cc1` [Compound I-2], the figures for the IC50 in assay [1] and in assay [2] were 7.5 nM and 72 nM, respectively.
As for `COc1ccc(NC(=O)C2CCC(NS(=O)(=O)C(C)(C)C)CC2)cc1F` (stereo not drawn) [Ia-36], the values for the IC50 in assay [1] and in assay [2] were 1.6 nM and 86 nM, respectively.
On the same counts, the results for `CC(C)(C)S(=O)(=O)NC1CCC(C(=O)Nc2ccc(C(C#N)c3ccccc3)c(Cl)c2)CC1` (stereo not drawn) [Compound I-130] are 1.1 nM and 42.5 nM.
As to `CC(C)(C)S(=O)(=O)Nc1ccc(C(=O)Nc2ccc(-c3ccco3)cc2)cc1` [Ia-210], the IC50 in assay [1] is 2.8 nM; in assay [2], 99 nM.
As to `CC(C)(C)S(=O)(=O)NC1CCC(C(=O)Nc2ccc3scnc3c2)CC1` (stereo not drawn) [Ia-106], the concentration for half-maximal inhibition (IC50) in assay [1] was 1.9 nM; in assay [2] it was 24 nM.
In the case of `CCCCOc1ccc(NC(=O)C2CCC(NS(=O)(=O)C(C)(C)C)CC2)c(O)c1` (stereo not drawn) [Compound I-165], the IC50 in assay [1] was 0.44 nM; in assay [2], 47 nM.
With `CC(C)S(=O)(=O)N[C@H]1CC[C@H](C(=O)Nc2ccc3c(c2)C(=O)N(c2ccccc2)C3=O)CC1` [Ia-80], the IC50 was found to be 0.44 nM in assay [1] and 3 nM in assay [2].
As for `CC(C)(C)S(=O)(=O)NC1CCC(C(=O)Nc2ccc3c(c2)OCCO3)CC1` (stereo not drawn) [Compound I-202], the IC50 in assay [1] turned out to be 6.7 nM; in assay [2] it was 67 nM.
Regarding `CC(C)(C)S(=O)(=O)NC1CCC(C(=O)Nc2cccc(C(F)(F)F)c2)CC1` (stereo not drawn) [Ia-129], the concentration for half-maximal inhibition (IC50) in assay [1] is 1.3 nM; in assay [2] it was 26 nM.
With `CC(C)(C)S(=O)(=O)NC1CCC(C(=O)Nc2ccc(C3(O)CCOCC3)cc2)CC1` (stereo not drawn) [Ia-247], the half-maximal inhibitory concentration (IC50) in assay [1] was 0.79 nM; in assay [2] it was 31 nM.
On the same counts, the results for `CCCCc1ccc(NC(=O)CCCCNS(=O)(=O)C(C)(C)CC)cc1` [Compound I-109] are 1.2 nM and 3.2 nM.
In the case of `CCCCc1ccc(NC(=O)c2ccc(NS(=O)(=O)C(C)(C)C)cc2)cc1` [Compound I-102], the IC50 is 1.7 nM in assay [1] and 14 nM in assay [2].
`CC(C)S(=O)(=O)NC1CCC(C(=O)Nc2ccc(-c3ncco3)cc2)CC1` (stereo not drawn) [Ia-204]: the IC50 in assay [1] is 1 nM; in assay [2], 6.3 nM.
With `CC(C)(C)S(=O)(=O)NC1CCC(C(=O)Nc2cccc(C3CCOCC3)c2)CC1` (stereo not drawn) [Ia-246], the values for the IC50 in assay [1] and in assay [2] were 0.26 nM and 20 nM, respectively.
On the same counts, the results for `CC(C)S(=O)(=O)Nc1ccc(C(=O)Nc2ccc3c(c2)CCC3)cc1` [Ia-163] are 7 nM and 400 nM.
In the case of `CC(C)(C)S(=O)(=O)NC1CCC(C(=O)Nc2cccc(Oc3ccccc3)c2)CC1` (stereo not drawn) [Compound I-134], the concentration for half-maximal inhibition (IC50) in assay [1] was 0.5 nM; in assay [2] it was 10 nM.
`CC(C)(C)S(=O)(=O)NC1CCC(C(=O)Nc2ccc(OC3CCCC3)cc2)CC1` (stereo not drawn) [Ia-164]: the half-inhibitory concentration (IC50) in assay [1] was 0.38 nM; in assay [2], 4.7 nM.
